# Measurements: PubChem BioAssay (NCI)
#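 Five compound concentrations were applied to cells in 96-well plates for 48 hours; endpoints were derived by simple linear interpolation of the resulting dose-response curve. The concentration for 50% growth inhibition is given as GI50. TGI is the concentration that stops growth completely.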
# Key:
# Experiment in all cases: NCI anticancer screen, dose series, 48 h
# HCT-116 colon = system: HCT-116 colon
# HOP-62 NSCLC = system: HOP-62 NSCLC
# HOP-92 NSCLC = system: HOP-92 NSCLC
# OVCAR-4 ovarian = system: OVCAR-4 ovarian
# RPMI-8226 leukemia = system: RPMI-8226 leukemia
# RXF 393 renal = system: RXF 393 renal
# SF-268 CNS = system: SF-268 CNS
# SNB-19 CNS = system: SNB-19 CNS
# U251 CNS = system: U251 CNS
# TK-10 renal = system: TK-10 renal
SMILES,TGI (HCT-116 colon),TGI (HOP-62 NSCLC),TGI (HOP-92 NSCLC),TGI (OVCAR-4 ovarian),TGI (RPMI-8226 leukemia),TGI (RXF 393 renal),TGI (SF-268 CNS),TGI (SNB-19 CNS),TGI (U251 CNS),GI50 (HCT-116 colon),GI50 (HOP-62 NSCLC),GI50 (HOP-92 NSCLC),GI50 (OVCAR-4 ovarian),GI50 (RPMI-8226 leukemia),GI50 (RXF 393 renal),GI50 (SF-268 CNS),GI50 (SNB-19 CNS),GI50 (TK-10 renal),TGI (TK-10 renal),GI50 (U251 CNS)
Cc1ccccc1N=Nc1c(-c2ccccc2)nn(C(=O)CC(=O)Nc2cccc(Cl)c2)c1-c1ccccc1,17.8 µM,> 31.6 µM,> 100 µM,> 31.6 µM,21.2 µM,28.4 µM,> 31.6 µM,> 100 µM,19.6 µM,–,–,–,–,–,–,–,–,–,–,–
O=C(Nc1ccc2c(c1)OCCO2)C(=O)c1c[nH]c2ccccc12,> 20.5 µM,21.2 µM,11.1 µM,> 100 µM,> 100 µM,11.1 µM,37.5 µM,79.7 µM,15.9 µM,1.25 µM,2.9 µM,1.34 µM,3.88 µM,2.34 µM,2.59 µM,1.98 µM,2.88 µM,6.75 µM,31.4 µM,1.63 µM
O=C(/C=C\n1cnc(-c2cc(C(F)(F)F)cc(C(F)(F)F)c2)n1)N1CC(F)(F)C1,4.45 µM,3.46 µM,4.37 µM,4.13 µM,17.9 µM,1.09 µM,2.48 µM,> 25 µM,3.66 µM,0.4 µM,0.57 µM,0.0288 µM,0.224 µM,0.408 µM,0.226 µM,0.254 µM,0.273 µM,0.645 µM,3.7 µM,0.248 µM
O=C(NCc1ccc2ccc3cccnc3c2n1)c1ccc[n+](Cc2ccccc2)c1,> 100 µM,> 100 µM,> 100 µM,> 100 µM,> 100 µM,> 100 µM,> 100 µM,> 100 µM,> 100 µM,–,–,–,–,–,–,–,–,–,> 100 µM,–
CCn1c(=N)sc2nc3ccccc3n2c1=O,> 100 µM,> 100 µM,> 100 µM,> 100 µM,> 100 µM,> 100 µM,> 100 µM,> 100 µM,> 100 µM,–,–,–,–,–,–,–,–,–,> 100 µM,–
CN1CCN(CCCOc2cccc3nc(Nc4ccc(F)c(F)c4)ccc23)CC1,7.87 µM,5.34 µM,5.74 µM,15.2 µM,12.3 µM,6.57 µM,9.74 µM,10.2 µM,7.2 µM,3.8 µM,1.25 µM,1.43 µM,6.42 µM,5.2 µM,2.11 µM,4.46 µM,4.89 µM,2.63 µM,6.94 µM,2.68 µM
COc1ccc2nc3cccc([N+](=O)[O-])c3c(NCCNCCN(C)C)c2c1,12 µM,0.698 µM,0.204 µM,0.0509 µM,0.106 µM,0.122 µM,0.715 µM,1.17 µM,0.404 µM,0.25 µM,0.183 µM,0.0588 µM,0.0199 µM,0.0208 µM,0.0342 µM,0.161 µM,0.223 µM,0.194 µM,1.09 µM,0.0376 µM
S=C(CSc1ccccc1)Nc1cccc2ccccc12,> 100 µM,> 100 µM,> 100 µM,> 100 µM,> 100 µM,> 100 µM,> 100 µM,> 100 µM,> 100 µM,–,–,–,–,–,–,–,–,–,> 100 µM,–
O=C(/C(=N/Nc1ccccc1)c1ccc([N+](=O)[O-])cc1)c1ccc([N+](=O)[O-])cc1,> 100 µM,–,> 100 µM,> 100 µM,> 100 µM,> 100 µM,–,> 100 µM,> 100 µM,–,–,–,–,–,–,–,–,–,> 100 µM,–
CCCCCCCCCCOC(=O)c1cc[n+](C)cc1,36.6 µM,30.6 µM,29.2 µM,33 µM,38.2 µM,34.3 µM,35.3 µM,30.4 µM,29.1 µM,–,–,–,–,–,–,–,–,–,31.8 µM,–
CCN(CC)c1ccc(N=Nc2ccc(-c3nc4cccn(C)c-4n3)cc2)cc1,15.6 µM,24.7 µM,33 µM,31.2 µM,7.07 µM,11.8 µM,50.1 µM,52.4 µM,16.3 µM,–,–,–,–,–,–,–,–,–,68.2 µM,–
COc1cc2c(c(OC)c1OC)-c1ccc(SC)c(=O)cc1C(CC(=O)Oc1cccc(F)c1)C2 (centres undefined),1.06 µM,> 100 µM,> 81.3 µM,> 100 µM,6.19 µM,> 100 µM,> 72.5 µM,> 100 µM,0.85 µM,–,–,–,–,–,–,–,–,–,> 100 µM,–
COC(=O)CC(=O)NCC1=CCC(=O)CC1,> 100 µM,> 100 µM,> 100 µM,> 100 µM,> 100 µM,> 100 µM,> 100 µM,> 100 µM,> 100 µM,–,–,–,–,–,–,–,–,–,> 100 µM,–
O=c1[nH]c(=O)n(C2CC(O)C(CO)O2)cc1COCC(F)(F)F (centres undefined),–,> 100 µM,> 100 µM,> 100 µM,> 100 µM,> 100 µM,> 100 µM,> 100 µM,> 100 µM,–,–,–,–,–,–,–,–,–,> 100 µM,–
COc1cc(-c2cc3ncccc3c3[nH]c(=O)c4cccnc4c23)cc(OC)c1OC,–,> 100 µM,> 100 µM,> 100 µM,47.5 µM,26.2 µM,> 100 µM,> 100 µM,> 100 µM,–,7.76 µM,12.2 µM,8.87 µM,1.3 µM,0.818 µM,2.16 µM,0.981 µM,17.2 µM,> 100 µM,0.603 µM
NCCOc1ncccc1/C=C1\c2ccccc2-c2ccc([N+](=O)[O-])cc21,0.237 µM,0.133 µM,0.477 µM,0.827 µM,0.317 µM,0.443 µM,0.619 µM,1.04 µM,0.303 µM,0.0455 µM,0.0261 µM,0.0234 µM,0.194 µM,0.0383 µM,0.171 µM,0.0827 µM,0.0356 µM,0.126 µM,0.282 µM,0.0269 µM
OC(COc1ccccc1)CN1CCCCC1 (centres undefined),> 100 µM,> 100 µM,> 100 µM,> 100 µM,> 100 µM,> 100 µM,> 100 µM,> 100 µM,> 100 µM,–,–,–,–,–,–,–,–,–,> 100 µM,–
